The assay relates to CD2F1 mice, L1210 leukemia ip, survival T/C. The assay is described as follows: NCI In Vivo Anticancer Drug Screen. Data for tumor model L1210 Leukemia (intraperitoneal) in CD2F1 (CDF1) mice. The following applies: higher = longer survival. In outline: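 Each value reflects a quotient of treated over vehicle control outcomes in mice with a transplanted tumor.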
The mark [1] stands for this setting: endpoint: mean survival time, dose: 100.0 mg/kg/injection, schedule: Q01DX001 (ip), vehicle: saline.
Where [2] appears, read: endpoint: mean survival time, dose: 200.0 mg/kg/injection, schedule: Q01DX001 (ip), vehicle: saline.
Setting [3] is: endpoint: mean survival time, dose: 100.0 mg/kg/injection, schedule: Q01DX009 (ip), vehicle: saline with Tween-80.
Where [4] appears, read: endpoint: mean survival time, dose: 100.0 mg/kg/injection, schedule: Q04DX003 (ip), vehicle: saline with Tween-80.
Where [5] appears, read: endpoint: mean survival time, dose: 200.0 mg/kg/injection, schedule: Q01DX009 (ip), vehicle: saline with Tween-80.
Setting [6] is: endpoint: mean survival time, dose: 200.0 mg/kg/injection, schedule: Q04DX003 (ip), vehicle: saline with Tween-80.
The mark [7] stands for this setting: endpoint: mean survival time, dose: 400.0 mg/kg/injection, schedule: Q01DX009 (ip), vehicle: saline with Tween-80.
Where [8] appears, read: endpoint: mean survival time, dose: 400.0 mg/kg/injection, schedule: Q04DX003 (ip), vehicle: saline with Tween-80.
[9] abbreviates: endpoint: mean survival time, dose: 12.5 mg/kg/injection, schedule: Q01DX009 (ip), vehicle: saline with Tween-80.
Where [10] appears, read: endpoint: mean survival time, dose: 25.0 mg/kg/injection, schedule: Q01DX009 (ip), vehicle: saline with Tween-80.

Where “and” joins values, the source holds several entries; their conditions need not be identical. Equal entries are not always repeated. Inconclusive results and toxic doses are left out.

Our source for the T/C values is PubChem BioAssay AID256 (DTP/NCI, 2004).

For the compound `CCCCOC(=O)CCl`, the T/C is 100 % of control under setting [1] and 94 % of control under setting [2].

Consider `COc1ccc(/C=C/C(=O)c2ccccc2)cc1Br`, for which the T/C under setting [3] is 104 % of control; the T/C under setting [4] was 97 % of control; the T/C under setting [5] was 98 % of control; the T/C under setting [6] is 98 % of control; the T/C under setting [7] was 101 % of control; the T/C under setting [8] was 95 % of control.

Consider `CCOC(=O)C(C(C)=O)C(=O)CCc1ccccc1` (stereo not drawn), for which the T/C under setting [4] is 99 % of control, the T/C under setting [6] is 100 % of control and the T/C under setting [8] was 103 % of control.

Turning to `NC1=NCN(c2ccc(OCCOc3ccc(NC(=O)CBr)cc3)cc2)C(N)=N1`, the T/C was 96 % of control (endpoint: mean survival time, dose: 37.5 mg/kg/injection, schedule: Q04DX002 (ip), vehicle: saline with Tween-80); 96 % of control (endpoint: mean survival time, dose: 75.0 mg/kg/injection, schedule: Q04DX002 (ip), vehicle: saline with Tween-80); 90 % of control (endpoint: mean survival time, dose: 150.0 mg/kg/injection, schedule: Q04DX002 (ip), vehicle: saline with Tween-80).

`CCN(CC)Cc1cc(Nc2ncnc3oc(C)c(C)c23)ccc1O`: the T/C is 100 % of control (endpoint: mean survival time, dose: 100.0 mg/kg/injection, schedule: Q01DX001 (ip), vehicle: saline with Tween-80); 102 % of control under setting [3]; 95 % of control (endpoint: mean survival time, dose: 200.0 mg/kg/injection, schedule: Q01DX001 (ip), vehicle: saline with Tween-80); 96 % of control under setting [5]; 95 % of control (endpoint: mean survival time, dose: 400.0 mg/kg/injection, schedule: Q01DX001 (ip), vehicle: saline with Tween-80); 100 % of control under setting [7].

As for `C[n+]1cccc(C(=O)N/N=C/CCc2ccccc2)c1`, the T/C reads like this: under setting [9], 92 % of control; under setting [10], 93 % of control; (endpoint: mean survival time, dose: 25.0 mg/kg/injection, schedule: Q04DX002 (ip), vehicle: saline with Tween-80) 100 % of control; (endpoint: mean survival time, dose: 50.0 mg/kg/injection, schedule: Q01DX009 (ip), vehicle: saline with Tween-80) 97 % of control; (endpoint: mean survival time, dose: 50.0 mg/kg/injection, schedule: Q04DX002 (ip), vehicle: saline with Tween-80) 95 % of control; under setting [3], 97 % of control. Further, the T/C is 101 % of control (endpoint: mean survival time, dose: 100.0 mg/kg/injection, schedule: Q04DX002 (ip), vehicle: saline with Tween-80) and 97 % of control (endpoint: mean survival time, dose: 200.0 mg/kg/injection, schedule: Q04DX002 (ip), vehicle: saline with Tween-80).

For `Cc1cc(-c2ccc(N=Nc3c(N)ccc4cc(S(=O)(=O)O)ccc34)c(C)c2)ccc1N=Nc1c(N)ccc2cc(S(=O)(=O)O)ccc12`, the T/C is 101 % of control (endpoint: mean survival time, dose: 50.0 mg/kg/injection, schedule: Q01DX009 (ip), vehicle: saline) and 101 % of control (endpoint: mean survival time, dose: 100.0 mg/kg/injection, schedule: Q01DX009 (ip), vehicle: saline).

Consider `O=C(O)c1ccc(C(=O)O)c(C(=O)O)c1.[NH-]C1CCCCCC1[NH-].[Pt+2]`, for which the T/C by setting is: (endpoint: mean survival time, dose: 3.75 mg/kg/injection, schedule: Q04DX003 (ip), vehicle: sodium bicarbonate) 159 % of control; (endpoint: mean survival time, dose: 7.5 mg/kg/injection, schedule: Q04DX003 (ip), vehicle: sodium bicarbonate) 156 % of control and 250 % of control; (endpoint: mean survival time, dose: 15.0 mg/kg/injection, schedule: Q04DX003 (ip), vehicle: sodium bicarbonate) 200 % of control and 219 % of control; (endpoint: mean survival time, dose: 30.0 mg/kg/injection, schedule: Q04DX003 (ip), vehicle: sodium bicarbonate) 105 % of control.

Take `Clc1nc2nc[nH]c2nc1Cl`: the T/C is, setting by setting: (endpoint: mean survival time, dose: 25.0 mg/kg/injection, schedule: Q01DX009 (ip), vehicle: saline sonified) 97 % of control; (endpoint: mean survival time, dose: 50.0 mg/kg/injection, schedule: Q01DX009 (ip), vehicle: saline sonified) 89 % of control; (endpoint: mean survival time, dose: 100.0 mg/kg/injection, schedule: Q01DX009 (ip), vehicle: saline sonified) 98 % of control.

Take `Cc1nc2[nH]c(=S)[nH]c(=O)c2nc1C`: the T/C reads like this: under setting [4], 97 % of control; under setting [6], 90 % of control; under setting [8], 90 % of control.

For the compound `COc1cc(CNC(=O)CCCC2CCC2)ccc1O`, the T/C (endpoint: mean survival time, dose: 3.13 mg/kg/injection, schedule: Q01DX009 (ip), vehicle: saline with Tween-80) is 96 % of control; the T/C (endpoint: mean survival time, dose: 6.25 mg/kg/injection, schedule: Q01DX009 (ip), vehicle: saline with Tween-80) is 94 % of control and 97 % of control; the T/C (endpoint: mean survival time, dose: 6.25 mg/kg/injection, schedule: Q04DX003 (ip), vehicle: saline with Tween-80) is 96 % of control; the T/C under setting [9] was 86 % of control and 97 % of control; the T/C (endpoint: mean survival time, dose: 12.5 mg/kg/injection, schedule: Q04DX003 (ip), vehicle: saline with Tween-80) is 101 % of control; the T/C under setting [10] is 100 % of control. In addition, the T/C (endpoint: mean survival time, dose: 25.0 mg/kg/injection, schedule: Q04DX003 (ip), vehicle: saline with Tween-80) was 95 % of control.

As for `O=C(O)c1cccc2[nH]c(=O)oc(=O)c12`, the T/C under setting [4] is 103 % of control, the T/C under setting [6] is 95 % of control and the T/C under setting [8] is 93 % of control.

As for `CN(Cc1ccccc1)/N=N/c1nc[nH]c1C(N)=O`, the T/C (endpoint: mean survival time, dose: 4.0 mg/kg/injection, schedule: Q01DX009 (ip), vehicle: Klucel (hydroxypropylcellulose) (HPC)) was 98 % of control; the T/C (endpoint: mean survival time, dose: 8.0 mg/kg/injection, schedule: Q01DX009 (ip), vehicle: Klucel (hydroxypropylcellulose) (HPC)) is 98 % of control; the T/C (endpoint: mean survival time, dose: 16.1 mg/kg/injection, schedule: Q01DX009 (ip), vehicle: Klucel (hydroxypropylcellulose) (HPC)) is 102 % of control; the T/C (endpoint: mean survival time, dose: 32.2 mg/kg/injection, schedule: Q01DX009 (ip), vehicle: Klucel (hydroxypropylcellulose) (HPC)) is 106 % of control; the T/C (endpoint: mean survival time, dose: 129.0 mg/kg/injection, schedule: Q01DX009 (ip), vehicle: Klucel (hydroxypropylcellulose) (HPC)) was 95 % of control; the T/C (endpoint: mean survival time, dose: 258.0 mg/kg/injection, schedule: Q01DX009 (ip), vehicle: Klucel (hydroxypropylcellulose) (HPC)) was 70 % of control. Also, the T/C (endpoint: median survival time, dose: 8.0 mg/kg/injection, schedule: Q03HX016 (ip), vehicle: saline with Tween-80) is 106 % of control; the T/C (endpoint: median survival time, dose: 8.0 mg/kg/injection, schedule: Q03HX024 (ip), vehicle: saline with Tween-80) is 115 % of control; the T/C (endpoint: median survival time, dose: 16.0 mg/kg/injection, schedule: Q03HX016 (ip), vehicle: saline with Tween-80) was 112 % of control; the T/C (endpoint: median survival time, dose: 16.0 mg/kg/injection, schedule: Q03HX024 (ip), vehicle: saline with Tween-80) was 124 % of control; the T/C (endpoint: median survival time, dose: 32.0 mg/kg/injection, schedule: Q03HX016 (ip), vehicle: saline with Tween-80) is 123 % of control; the T/C (endpoint: median survival time, dose: 64.0 mg/kg/injection, schedule: Q04DX003 (ip), vehicle: saline with Tween-80) is 116 % of control. Moreover, the T/C by setting is: (endpoint: median survival time, dose: 64.0 mg/kg/injection, schedule: Q08DX002 (ip), vehicle: saline with Tween-80) 105 % of control; (endpoint: median survival time, dose: 128.0 mg/kg/injection, schedule: Q04DX003 (ip), vehicle: saline with Tween-80) 123 % of control; (endpoint: median survival time, dose: 128.0 mg/kg/injection, schedule: Q08DX002 (ip), vehicle: saline with Tween-80) 112 % of control; (endpoint: median survival time, dose: 256.0 mg/kg/injection, schedule: Q01DX009 (ip), vehicle: saline with Tween-80) 120 % of control; (endpoint: median survival time, dose: 256.0 mg/kg/injection, schedule: Q08DX002 (ip), vehicle: saline with Tween-80) 112 % of control; (endpoint: median survival time, dose: 512.0 mg/kg/injection, schedule: Q08DX002 (ip), vehicle: saline with Tween-80) 156 % of control.

Turning to `Cc1cc(C)nc(N)n1`, the T/C by setting is: under setting [4], 95 % of control; under setting [6], 98 % of control; under setting [8], 98 % of control.

Regarding `CC(=O)/C(N=Nc1ccc(S(=O)(=O)c2ccc(N=N/C(C(C)=O)=C(/C)O)cc2)cc1)=C(\C)O`, the T/C was 86 % of control under setting [3], 86 % of control under setting [5] and 102 % of control under setting [7].

On to `O=C(c1ccccc1Br)C(Br)C(Br)c1ccccc1` (stereo not drawn), for which the T/C was 103 % of control under setting [4], 111 % of control under setting [6] and 100 % of control under setting [8].

With `CC(C)CC(=O)c1ccccc1O`, the T/C is, setting by setting: under setting [1], 100 % of control; under setting [2], 97 % of control; (endpoint: mean survival time, dose: 400.0 mg/kg/injection, schedule: Q01DX001 (ip), vehicle: saline) 96 % of control.

In the case of `C#CCOc1ccccc1O`, the T/C runs as follows: (endpoint: mean survival time, dose: 100.0 mg/kg/injection, schedule: Q04DX003 (ip), vehicle: acetone) 101 % of control; (endpoint: mean survival time, dose: 200.0 mg/kg/injection, schedule: Q04DX003 (ip), vehicle: acetone) 103 % of control; (endpoint: mean survival time, dose: 400.0 mg/kg/injection, schedule: Q04DX003 (ip), vehicle: acetone) 95 % of control.
